Data published in patent US8691280B2, “Microsphere comprising an organic lanthanide metal complex” (UMC Utrecht Holding B.V., priority 2007, dated 2014).

Assay: Determination of lanthanide (holmium, gadolinium) content of microspheres by complexometric titration and ICP-OES
Type: physicochemical
Conditions: Table 1, measured composition
Procedure: The holmium content of the microspheres was determined using the complexometric titration for aluminium that has been described in the European Pharmacopoeia. In short, approximately 50 mg of the dried microspheres is accurately weighed, and dissolved in 1 N NaOH. To this solution 1 N HCl is added and the solution is diluted to 50 ml, 5 grams hexamethylentetramine is added and the pH is adjusted to 5, using 1 N HCl. Approximately 50 mg of xylenol orange is added as an indicator, and the solution is then titrated with 0.01 M EDTA, until the colour changes from purple to yellow. Analyses were performed in triplicate.
The holmium content was measured by inductively coupled plasma optical emission spectrometry (IPC-OES). The microspheres are weighed and destructed at 100° C. with 5 ml 1 N NaOH, which was evaporated to dryness. 15 ml of 2% Nitric acid was added followed by a 1 in 50 dilution. Samples were introduced in an Optima 4300 CV (PerkinElmer; Norwalk, USA) and […] was measured at three different wavelengths (345.600, 339.898 and 347.426 nm) to accurately determine the holmium content.
The gadolinium content of the GdAcAc microspheres was determined in the same way as described in Example 1.

**Q.** For “holmium acetylacetonate [HoAcAc crystals]”, which “Ho, measured elemental composition” value is on record?
**A.** 31.2 % w/w
